ChEMBL document CHEMBL5303573, “Mapping human microbiome drug metabolism by gut bacteria and their genes” (Nature, 2019)

Legend:
[1] = The drug is tested on Bifidobacterium breve strain: DSM20213 for biotransformation. The drug concentrations were measured before and after a 12-h incubation by liquid-chromatography-coupled mass spectrometry (LC–MS); details: 2 µM
[2] = The drug is tested on Bifidobacterium longum subsp. Infantis strain: CCUG52486 for biotransformation. The drug concentrations were measured before and after a 12-h incubation by liquid-chromatography-coupled mass spectrometry (LC–MS); details: 2 µM
[3] = The drug is tested on Bifidobacterium ruminantium strain: fecal isolate for biotransformation. The drug concentrations were measured before and after a 12-h incubation by liquid-chromatography-coupled mass spectrometry (LC–MS); details: 2 µM
[4] = The drug is tested on Collinsella intestinalis strain: DSM13280 for biotransformation. The drug concentrations were measured before and after a 12-h incubation by liquid-chromatography-coupled mass spectrometry (LC–MS); details: 2 µM
[5] = The drug is tested on Bacteroides caccae strain: ATCC43185 for biotransformation. The drug concentrations were measured before and after a 12-h incubation by liquid-chromatography-coupled mass spectrometry (LC–MS); details: 2 µM
[6] = The drug is tested on Bacteroides pectinophilus strain: ATCC43243 for biotransformation. The drug concentrations were measured before and after a 12-h incubation by liquid-chromatography-coupled mass spectrometry (LC–MS); details: 2 µM
[7] = The drug is tested on Odoribacter splanchnicus strain: fecal isolate for biotransformation. The drug concentrations were measured before and after a 12-h incubation by liquid-chromatography-coupled mass spectrometry (LC–MS); details: 2 µM
[8] = The drug is tested on Clostridium scindens strain: ATCC35704 for biotransformation. The drug concentrations were measured before and after a 12-h incubation by liquid-chromatography-coupled mass spectrometry (LC–MS); details: 2 µM
[9] = The drug is tested on Eubacterium hallii strain: DSM3353 for biotransformation. The drug concentrations were measured before and after a 12-h incubation by liquid-chromatography-coupled mass spectrometry (LC–MS); details: anaerobutyricum hallii, 2 µM
[10] = The drug is tested on Enterobacter cancerogenus strain: ATCC35316 for biotransformation. The drug concentrations were measured before and after a 12-h incubation by liquid-chromatography-coupled mass spectrometry (LC–MS); details: 2 µM
[11] = The drug is tested on Escherichia coli strain: BW25113 for biotransformation. The drug concentrations were measured before and after a 12-h incubation by liquid-chromatography-coupled mass spectrometry (LC–MS); details: 2 µM
[12] = bacteroides intestinalis, 12 h, 2 µM
Description: The drug is tested on Bacteroides intestinalis strain: DSM17393 for biotransformation. The drug concentrations were measured before and after a 12-h incubation by liquid-chromatography-coupled mass spectrometry (LC–MS)

[13] = bacteroides stercoris, 12 h, 2 µM
Description: The drug is tested on Bacteroides stercoris strain: ATCC43183 for biotransformation. The drug concentrations were measured before and after a 12-h incubation by liquid-chromatography-coupled mass spectrometry (LC–MS)

[14] = bacteroides thetaiotaomicron, 12 h, 2 µM
Description: The drug is tested on Bacteroides thetaiotaomicron strain: VPI-5482 for biotransformation. The drug concentrations were measured before and after a 12-h incubation by liquid-chromatography-coupled mass spectrometry (LC–MS)

[15] = bacteroides thetaiotaomicron, 12 h, 2 µM; remark: listed apart in the source
Description: The drug is tested on Bacteroides thetaiotaomicron strain: 3731 for biotransformation. The drug concentrations were measured before and after a 12-h incubation by liquid-chromatography-coupled mass spectrometry (LC–MS)

[16] = parabacteroides distasonis, 12 h, 2 µM
Description: The drug is tested on Parabacteroides distasonis strain: ATCC8503 for biotransformation. The drug concentrations were measured before and after a 12-h incubation by liquid-chromatography-coupled mass spectrometry (LC–MS)

[17] = limosilactobacillus reuteri cf48-3a, 12 h, 2 µM
Description: The drug is tested on Lactobacillus reuteri CF48-3A strain: BEI HM-102 for biotransformation. The drug concentrations were measured before and after a 12-h incubation by liquid-chromatography-coupled mass spectrometry (LC–MS)

[18] = The drug is tested on Clostridium asparagiforme strain: DSM15981 for biotransformation. The drug concentrations were measured before and after a 12-h incubation by liquid-chromatography-coupled mass spectrometry (LC–MS); assay type: ADME; design: dose 2 uM, timepoint 0 vs 12 hours; details: enterocloster asparagiformis, 2 µM
[19] = bifidobacterium adolescentis, 12 h, 2 µM
Description: The drug is tested on Bifidobacterium adolescentis strain: ATCC 15703 for biotransformation. The drug concentrations were measured before and after a 12-h incubation by liquid-chromatography-coupled mass spectrometry (LC–MS)

[20] = The drug is tested on Bacteroides fragilis strain: HMW610 for biotransformation. The drug concentrations were measured before and after a 12-h incubation by liquid-chromatography-coupled mass spectrometry (LC–MS); details: 2 µM

| SMILES | Bacterial Biotransformation [1] | Bacterial Biotransformation [2] | Bacterial Biotransformation [3] | Bacterial Biotransformation [4] | Bacterial Biotransformation [5] | Bacterial Biotransformation [6] | Bacterial Biotransformation [7] | Bacterial Biotransformation [8] | Bacterial Biotransformation [9] | Bacterial Biotransformation [10] | Bacterial Biotransformation [11] | Bacterial Biotransformation [12] | Bacterial Biotransformation [13] | Bacterial Biotransformation [14] | Bacterial Biotransformation [15] | Bacterial Biotransformation [16] | Bacterial Biotransformation [17] | Bacterial Biotransformation [18] | Bacterial Biotransformation [19] | Bacterial Biotransformation [20] |
| --- | --- | --- | --- | --- | --- | --- | --- | --- | --- | --- | --- | --- | --- | --- | --- | --- | --- | --- | --- | --- |
| CCOC(=O)[C@H](CCc1ccccc1)N[C@@H](C)C(=O)N1Cc2ccccc2C[C@H]1C(=O)O | Compound metabolized | Compound NOT metabolized | Compound metabolized | Compound metabolized | Compound metabolized | Compound metabolized | Compound metabolized | Compound NOT metabolized | Compound NOT metabolized | Compound NOT metabolized | Compound NOT metabolized | Compound metabolized | Compound metabolized | Compound metabolized | Compound metabolized | Compound metabolized | Compound NOT metabolized |  |  |  |
| C=CCc1ccccc1OCC(O)CNC(C)C (configuration not stated) [ALPRENOLOL] | Compound NOT metabolized |  | Compound metabolized | Compound NOT metabolized | Compound NOT metabolized |  | Compound NOT metabolized | Compound NOT metabolized | Compound NOT metabolized |  |  | Compound NOT metabolized | Compound NOT metabolized | Compound NOT metabolized |  |  | Compound NOT metabolized | Compound NOT metabolized | Compound NOT metabolized |  |
| CCCC(C)(COC(N)=O)COC(=O)NC(C)C (configuration not stated) [CARISOPRODOL] | Compound NOT metabolized | Compound NOT metabolized | Compound NOT metabolized | Compound NOT metabolized | Compound NOT metabolized | Compound metabolized |  | Compound NOT metabolized | Compound NOT metabolized | Compound NOT metabolized | Compound NOT metabolized | Compound NOT metabolized | Compound metabolized | Compound metabolized |  | Compound metabolized |  |  |  | Compound metabolized |
| CC(C)(C)NCC(O)c1cc(Cl)c(N)c(Cl)c1 (configuration not stated) [CLENBUTEROL] | Compound NOT metabolized | Compound NOT metabolized |  | Compound NOT metabolized | Compound NOT metabolized | Compound NOT metabolized | Compound NOT metabolized | Compound NOT metabolized | Compound NOT metabolized | Compound NOT metabolized | Compound NOT metabolized | Compound NOT metabolized | Compound NOT metabolized | Compound NOT metabolized | Compound NOT metabolized | Compound NOT metabolized | Compound NOT metabolized |  | Compound NOT metabolized | Compound NOT metabolized |
| Clc1cccc(Cl)c1N=C1NCCN1 [CLONIDINE] | Compound NOT metabolized | Compound NOT metabolized | Compound NOT metabolized | Compound NOT metabolized | Compound NOT metabolized | Compound NOT metabolized | Compound metabolized | Compound NOT metabolized | Compound NOT metabolized | Compound NOT metabolized | Compound NOT metabolized | Compound NOT metabolized | Compound metabolized | Compound metabolized | Compound metabolized | Compound NOT metabolized | Compound NOT metabolized |  | Compound NOT metabolized |  |
| CN1CCN(C2=Nc3cc(Cl)ccc3Nc3ccccc32)CC1 [CLOZAPINE] | Compound NOT metabolized | Compound NOT metabolized | Compound NOT metabolized | Compound NOT metabolized | Compound NOT metabolized | Compound NOT metabolized | Compound NOT metabolized | Compound NOT metabolized | Compound NOT metabolized | Compound NOT metabolized | Compound NOT metabolized | Compound NOT metabolized | Compound NOT metabolized | Compound NOT metabolized | Compound NOT metabolized |  | Compound NOT metabolized |  | Compound NOT metabolized | Compound NOT metabolized |
| COc1cc2c(c(OC)c1OC)-c1ccc(OC)c(=O)cc1[C@@H](NC(C)=O)CC2 [COLCHICINE] | Compound NOT metabolized | Compound NOT metabolized | Compound NOT metabolized | Compound NOT metabolized |  |  | Compound metabolized | Compound NOT metabolized | Compound NOT metabolized |  |  | Compound metabolized | Compound metabolized | Compound metabolized | Compound metabolized | Compound metabolized | Compound NOT metabolized | Compound NOT metabolized | Compound NOT metabolized | Compound metabolized |
| CN(C)CCC=C1c2ccccc2C=Cc2ccccc21 [CYCLOBENZAPRINE] | Compound NOT metabolized | Compound NOT metabolized | Compound NOT metabolized | Compound NOT metabolized | Compound NOT metabolized |  | Compound NOT metabolized | Compound NOT metabolized | Compound NOT metabolized | Compound NOT metabolized | Compound NOT metabolized | Compound NOT metabolized | Compound NOT metabolized | Compound NOT metabolized |  | Compound NOT metabolized | Compound NOT metabolized |  | Compound NOT metabolized | Compound NOT metabolized |
| O=P1(N(CCCl)CCCl)NCCCO1 (configuration not stated) [CYCLOPHOSPHAMIDE ANHYDROUS] | Compound NOT metabolized |  | Compound NOT metabolized | Compound NOT metabolized |  |  | Compound NOT metabolized |  |  | Compound NOT metabolized | Compound NOT metabolized | Compound NOT metabolized | Compound NOT metabolized | Compound NOT metabolized | Compound NOT metabolized | Compound NOT metabolized |  |  | Compound NOT metabolized |  |
| CN1CCN(CC/C=C2/c3ccccc3Sc3ccc(S(=O)(=O)N(C)C)cc32)CC1 [THIOTHIXENE] | Compound metabolized | Compound NOT metabolized |  | Compound NOT metabolized | Compound NOT metabolized | Compound NOT metabolized | Compound metabolized | Compound metabolized | Compound NOT metabolized | Compound metabolized | Compound NOT metabolized | Compound NOT metabolized | Compound metabolized | Compound NOT metabolized | Compound NOT metabolized | Compound metabolized | Compound metabolized |  | Compound NOT metabolized | Compound NOT metabolized |
